Values belong to the compound of their own block, whether it stands above or below them.
Experiment: photoluminescence quantum yield (fraction); solvent given as SMILES
[1] = in c1cc(-n2c3ccccc3c3ccccc32)cc(-n2c3ccccc3c3ccccc32)c1

Compound: CC(=O)c1c2c(cc3cc(N(C)C)ccc13)CCC2
- photoluminescence quantum yield (in C1CCCCC1): 0.08
- photoluminescence quantum yield (in C1CCOC1): 0.34
- photoluminescence quantum yield (in C1COCCO1): 0.38
- photoluminescence quantum yield (in CC#N): 0.18
- photoluminescence quantum yield (in CCO): 0.03
- photoluminescence quantum yield (in CS(C)=O): 0.37
- photoluminescence quantum yield (in Cc1ccccc1): 0.25
- photoluminescence quantum yield (in ClC(Cl)Cl): 0.41
- photoluminescence quantum yield (in ClCCl): 0.82

Compound: C(=C\c1ccccn1)/c1ccc(N(c2ccc(/C=C/c3ccccn3)cc2)c2ccc(-c3nc4ccccc4nc3-c3ccc(N(c4ccc(/C=C/c5ccccn5)cc4)c4ccc(/C=C/c5ccccn5)cc4)cc3)cc2)cc1
- photoluminescence quantum yield (in C1CCOC1): 0.55

Compound: CCC1=C(C)C2=C(/C=C/c3ccc(OC)cc3)c3c(C)c(CC)c(C)n3[B-](F)(F)[N+]2=C1C
- photoluminescence quantum yield (in ClCCl): 0.01

Compound: COCCC1=Cc2nc1ccc1[nH]c(cc1CCOC)c1nc(c(N)cc3[nH]c2cc3CCOC)C(CCOC)=C1
- photoluminescence quantum yield (in Cc1ccccc1): 0.04

Compound: COc1ccc(-c2nc(-c3ccccc3)c(N(C)C)[se]2)cc1
- photoluminescence quantum yield (in ClC(Cl)Cl): 0.039

Compound: c1ccc(-c2nnc(-c3ccccc3)n2-c2ccc(N3c4ccccc4N(c4ccccc4)c4ccccc43)cc2)cc1
- photoluminescence quantum yield (in Cc1ccccc1): 0.03
- photoluminescence quantum yield [1]: 0.12

Compound: CCC/N=C/c1cc2ccc(N(C)C)cc2cc1OC
- photoluminescence quantum yield (in CS(C)=O): 0.61

Compound: Nc1cccnc1
- photoluminescence quantum yield (in C1CCCCC1): 0.02
- photoluminescence quantum yield (in CC#N): 0.05
- photoluminescence quantum yield (in CCO): 0.14
- photoluminescence quantum yield (in CCOCC): 0.03
- photoluminescence quantum yield (in O): 0.16

Compound: CC(C)[Si]1(C(C)C)c2cc(N(C)C)ccc2-c2ccc(C(F)(F)F)cc21
- photoluminescence quantum yield (in C1CCCCC1): 0.37
- photoluminescence quantum yield (in CC#N): 0.4
- photoluminescence quantum yield (in CCO): 0.28
- photoluminescence quantum yield (in CCOCC): 0.35
- photoluminescence quantum yield (in CS(C)=O): 0.17
- photoluminescence quantum yield (in ClCCl): 0.33
- photoluminescence quantum yield (in c1ccccc1): 0.29

Compound: C(=C\c1cc(/C=C/c2ccc(-n3c4ccccc4c4ccccc43)cc2)cc(/C=C/c2ccc(-n3c4ccccc4c4ccccc43)cc2)c1)/c1ccc(-n2c3ccccc3c3ccccc32)cc1
- photoluminescence quantum yield (in C1CCOC1): 0.8
- photoluminescence quantum yield (in CC#N): 0.83
- photoluminescence quantum yield (in Cc1ccccc1): 0.59
- photoluminescence quantum yield (in ClCCl): 0.75

Compound: CCCCCCCCCCCCn1cccc1/C=C/c1ccc(/C=C/c2cccn2CCCCCCCCCCCC)cc1
- photoluminescence quantum yield (in Cc1ccccc1): 0.32

Compound: CCCCCCCCCc1c2ccccc2cc2c1oc1c3oc4c5oc6cc7ccccc7cc6c5c5ccccc5c4c3c3ccccc3c21
- photoluminescence quantum yield (in C1CCOC1): 0.75

Compound: O=C(O)C1=C/C(=C/C=[N+]2/c3cc(O)c(C[C@@H]4O[C@H](CO)[C@@H](O)C(O)[C@H]4O)cc3C[C@H]2C(=O)O)C[C@@H](C(=O)O)N1 (stereo not given in full)
- photoluminescence quantum yield (in CO): 0.0013
- photoluminescence quantum yield (in O): 0.0007
- photoluminescence quantum yield (in OCCO): 0.0046
- photoluminescence quantum yield (in [2H]O[2H]): 0.0011

Compound: CC(C)(C)c1ccc2c(c1)c1cc(C(C)(C)C)ccc1n2-c1cccc(-c2nc(-c3cccc(P(=O)(c4ccccc4)c4ccccc4)c3)nc(-c3cccc(P(=O)(c4ccccc4)c4ccccc4)c3)n2)c1
- photoluminescence quantum yield (in O=P(c1ccccc1)(c1ccccc1)c1ccccc1Oc1ccccc1P(=O)(c1ccccc1)c1ccccc1): 0.72

Compound: Oc1ccc2ncccc2c1
- photoluminescence quantum yield (in CC#N): 0.088
- photoluminescence quantum yield (in CCCC#N): 0.086
- photoluminescence quantum yield (in CO): 0.107
- photoluminescence quantum yield (in Cc1ccccc1): 0.008
- photoluminescence quantum yield (in ClCCl): 0.043

Compound: C1=Cc2ccccc2C(=Cc2ccc(-c3cc(-c4ccc(C=C5c6ccccc6C=Cc6ccccc65)cc4)cc(-c4ccc(C=C5c6ccccc6C=Cc6ccccc65)cc4)c3)cc2)c2ccccc21
- photoluminescence quantum yield (in C1CCOC1): 0.0023

Compound: CC(C)(C)c1ccc2c(c1)c1cc(C(C)(C)C)ccc1n2-c1cc(C(=O)c2ccccc2)cc(-n2c3ccc(C(C)(C)C)cc3c3cc(C(C)(C)C)ccc32)c1
- photoluminescence quantum yield (in Cc1ccccc1): 0.073
- photoluminescence quantum yield (in c1cc(-c2cccc(-n3c4ccccc4c4ccccc43)c2)cc(-n2c3ccccc3c3ccccc32)c1): 0.75

Compound: O=Cc1cc(C=O)c2ccc3c(N4CCCCC4)cc(N4CCCCC4)c4ccc1c2c43
- photoluminescence quantum yield (in C1COCCO1): 0.92
- photoluminescence quantum yield (in CC#N): 0.88
- photoluminescence quantum yield (in CC(C)=O): 0.9
- photoluminescence quantum yield (in CCCCCC): 0.93
- photoluminescence quantum yield (in CCO): 0.87
- photoluminescence quantum yield (in CCOC(C)=O): 0.93
- photoluminescence quantum yield (in CO): 0.83
- photoluminescence quantum yield (in CS(C)=O): 0.75
- photoluminescence quantum yield (in Cc1ccccc1): 0.94
- photoluminescence quantum yield (in ClCCl): 0.91

Compound: COC(=O)c1ccc(C#Cc2ccc(N(C)C)cc2)cc1
- photoluminescence quantum yield (in C1CCCCC1): 0.351
- photoluminescence quantum yield (in C1CCOC1): 0.15
- photoluminescence quantum yield (in C1COCCO1): 0.303
- photoluminescence quantum yield (in CC1CCCO1): 0.248
- photoluminescence quantum yield (in CC#N): 0.134
- photoluminescence quantum yield (in CC(C)=O): 0.428
- photoluminescence quantum yield (in CC(C)CC(C)(C)C): 0.31
- photoluminescence quantum yield (in CC(C)O): 0.013
- photoluminescence quantum yield (in CCCCCCCCCCCCCCCC): 0.314
- photoluminescence quantum yield (in CCCCCCCCCCCCCCCCCl): 0.339
- photoluminescence quantum yield (in CCOC(C)=O): 0.14
- photoluminescence quantum yield (in CCOCC): 0.216
- photoluminescence quantum yield (in CN(C)C=O): 0.065
- photoluminescence quantum yield (in CO): 0.001
- photoluminescence quantum yield (in CS(C)=O): 0.053
- photoluminescence quantum yield (in Cc1ccccc1): 0.324

Compound: CC(C)(C)c1ccc2c(c1)c1cc(C(C)(C)C)ccc1n2-c1ccc(-n2c3ccc(C(C)(C)C)cc3c3cc(C(C)(C)C)ccc32)c(-c2nccnc2C#N)c1
- photoluminescence quantum yield (in Cc1ccccc1): 0.05
- photoluminescence quantum yield [1]: 0.44

Compound: CC(C)[Si](C#Cc1c2ccc(C(C)(C)C)cc2c(C#Cc2c3ccc(C(C)(C)C)cc3c(C#Cc3c4ccc(C(C)(C)C)cc4c(C#C[Si](C(C)C)(C(C)C)C(C)C)c4ccc(C(C)(C)C)cc34)c3ccc(C(C)(C)C)cc23)c2ccc(C(C)(C)C)cc12)(C(C)C)C(C)C
- photoluminescence quantum yield (in Cc1ccccc1): 0.022

Compound: Nc1ccccc1C(=O)O
- photoluminescence quantum yield (in C1CCCCC1): 0.29
- photoluminescence quantum yield (in CC#N): 0.56
- photoluminescence quantum yield (in CC(C)=O): 0.31
- photoluminescence quantum yield (in CCO): 0.59
- photoluminescence quantum yield (in CS(C)=O): 0.64
- photoluminescence quantum yield (in O): 0.6
- photoluminescence quantum yield (in OCC(F)(F)F): 0.27
- photoluminescence quantum yield (in c1ccccc1): 0.39

The remaining lines, values ahead:

- photoluminescence quantum yield (in CCO): 0.44
- photoluminescence quantum yield (in O): 0.28
Compound: CC/[NH+]=c1\cc2oc3cc(NCCC(=O)O)c4ccccc4c3nc-2cc1C

- photoluminescence quantum yield (in CC#N): 0.134
- photoluminescence quantum yield (in CCCCCC): 0.418
- photoluminescence quantum yield (in CO): 0.0206
- photoluminescence quantum yield (in ClC(Cl)Cl): 0.214
Compound: c1ccc2c(-c3cc(-c4nccs4)nc(-c4nccs4)c3)c3ccccc3cc2c1

- photoluminescence quantum yield (in CC#N): 0.1
- photoluminescence quantum yield (in CCCCCC): 0.1
- photoluminescence quantum yield (in CCOC(C)=O): 0.11
- photoluminescence quantum yield (in CO): 0.15
- photoluminescence quantum yield (in ClCCl): 0.17
Compound: COC1=[N+]2C(=C(c3ccccc3)c3cc(SC#N)c(OC)n3[B-]2(F)F)C=C1SC#N

- photoluminescence quantum yield (in CO): 0.28
Compound: C/C(=N\Nc1ccc(C#N)cc1)c1ccccn1

- photoluminescence quantum yield (in ClC(Cl)Cl): 0.01
Compound: N#Cc1c(C#N)c2cc(Br)ccc2c2ccc(Br)cc12

- photoluminescence quantum yield (in CC#N): 0.0051
Compound: c1cc2c3c(cccc3c1)C(N1CCOCCOCCN(C3=Nc4cccc5cccc3c45)CCOCC1)=N2

- photoluminescence quantum yield (in CC#N): 0.886
Compound: N#Cc1nn(-c2ccccc2)nc1N1CCCC1

- photoluminescence quantum yield (in O): 0.93
Compound: c1ccc2[nH]ccc2c1

- photoluminescence quantum yield (in C1CCOC1): 0.21
Compound: N#Cc1c(N2CCCCC2)cc(-c2cccs2)c2c1CCc1ccccc1-2

- photoluminescence quantum yield (in CC#N): 0.0002
- photoluminescence quantum yield (in ClCCl): 0.0003
Compound: COC(=O)c1ccccc1C#Cc1ccccc1NC(C)=O

- photoluminescence quantum yield (in ClCCl): 0.58
Compound: c1ccc(N2N=C(c3cccc4ccccc34)CC2c2ccc3ccc4cccc5ccc2c3c45)cc1 (stereo not given)

- photoluminescence quantum yield (in ClCCl): 0.12
Compound: CC(=O)c1ccc(-c2cc3c(ccc4sccc43)s2)cc1

- photoluminescence quantum yield (in CC#N): 0.234
- photoluminescence quantum yield (in CCCCCC): 0.142
- photoluminescence quantum yield (in CO): 0.161
- photoluminescence quantum yield (in ClC(Cl)Cl): 0.312
Compound: c1ccc2c(c1)cc(-c1cc(-c3nccs3)nc(-c3nccs3)c1)c1ccccc12

- photoluminescence quantum yield (in CN(C)C=O): 0.84
Compound: O=C1c2ccc3c4ccc5c6c(ccc(c7ccc(c2c37)C(=O)N1c1ccc(Cl)cc1)c64)C(=O)N(c1ccc(Cl)cc1)C5=O

- photoluminescence quantum yield (in CCCCO): 0.0112
- photoluminescence quantum yield (in CCCO): 0.0085
- photoluminescence quantum yield (in CCO): 0.00451
- photoluminescence quantum yield (in CO): 0.00214
Compound: CN1C(C(=O)Nc2ccccn2)=C([O-])c2sccc2S1(=O)=O

- photoluminescence quantum yield (in CS(C)=O): 0.83
Compound: Cc1ccc(C2C3=C(CCCC3=O)Nc3c2c(=O)oc2ccccc32)cc1 (stereo not given)

- photoluminescence quantum yield (in C1CCOC1): 0.21
Compound: CCN(CC)c1ccc(-c2nc3c(nc2-c2ccc(B(c4c(C)cc(C)cc4C)c4c(C)cc(C)cc4C)cc2)c2ccccc2n3C)cc1

- photoluminescence quantum yield (in C1COCCO1): 0.005
- photoluminescence quantum yield (in CC#N): 0.0026
- photoluminescence quantum yield (in CCO): 0.0027
- photoluminescence quantum yield (in CCOC(C)=O): 0.003
- photoluminescence quantum yield (in O): 0.0029
Compound: COc1ccc(/C=C/C2=NC(=C\c3ccncc3)/C(=O)N2C)cc1

- photoluminescence quantum yield (in C1CCOC1): 0.01
- photoluminescence quantum yield (in C1COCCO1): 0.01
- photoluminescence quantum yield (in CC#N): 0.01
- photoluminescence quantum yield (in CC(C)O): 0.02
- photoluminescence quantum yield (in CCO): 0.01
- photoluminescence quantum yield (in CCOC(C)=O): 0.01
- photoluminescence quantum yield (in CN(C)C=O): 0.01
- photoluminescence quantum yield (in CS(C)=O): 0.01
Compound: NS(=O)(=O)c1ccc(N2N=C(c3ccc(O)cc3)CC2c2ccc([N+](=O)[O-])cc2)cc1 (stereo not given)

- photoluminescence quantum yield (in C1CCOC1): 0.01
- photoluminescence quantum yield (in CS(C)=O): 0.01
- photoluminescence quantum yield (in ClC(Cl)Cl): 0.01
- photoluminescence quantum yield (in ClCCl): 0.04
Compound: COc1ccc(-c2nc(-c3ccccc3O)c(-c3ccccc3O)n2-c2ccc(C)cc2)cc1

- photoluminescence quantum yield (in CO): 0.81
Compound: CC1=CC(/C=C/c2ccc(OCCCN=[N+]=[N-])cc2)=[N+]2C1=C(c1ccc(N3CCCCC3)cc1)c1c(C)cc(C)n1[B-]2(F)F

- photoluminescence quantum yield (in ClC(Cl)Cl): 0.83
Compound: CCCCN1c2ccc(/C=C/c3cc(=O)oc4cc(C)ccc34)cc2Sc2cc(/C=C/c3cc(=O)oc4cc(C)ccc34)ccc21

- photoluminescence quantum yield (in C1CCOC1): 0.16
- photoluminescence quantum yield (in CN(C)C=O): 0.14
- photoluminescence quantum yield (in ClCCl): 0.16
- photoluminescence quantum yield (in c1ccccc1): 0.21
Compound: F[B-]1(F)n2c(c3cc4ccccc4cc3c2-c2ccccc2)C=C2c3cc4ccccc4cc3C(c3ccccc3)=[N+]21

- photoluminescence quantum yield (in CC#N): 0.13
- photoluminescence quantum yield (in CCCCCC): 0.11
Compound: CCN(CC)c1ccc(-n2cccc2)cc1

- photoluminescence quantum yield (in C1CCCCC1): 0.65
- photoluminescence quantum yield (in CC#N): 0.08
Compound: C[Si](C)(c1cccc2ccccc12)[Si](C)(C)[Si](C)(C)[Si](C)(C)c1c2ccccc2cc2ccccc12

- photoluminescence quantum yield (in ClC(Cl)Cl): 0.08
Compound: N#Cc1c(C#N)c2cc(F)ccc2c2ccc(F)cc12

- photoluminescence quantum yield (in ClCCl): 0.01
Compound: Clc1ccc(/C=C/c2ccncn2)cc1
